Assay results taken from publication PMC10693550, “Programmable de novo designed coiled coil-mediated phase separation in mammalian cells” (Nature Communications, 2023).
One block for each molecule: values may come before it. No end group written: not given here.

What was measured:
FKBP/FRB [1] = test: Rapamycin-induced assembly of single-chain condensates from FKBP/FRB-fused APPAP halves, HEK293T cells; assay type: cell-based, H.sapiens; conditions: 1 μM rapamycin; HEK293T cells expressing Cit-APPAP-gs-FKBP and FRB-APPAP-gs; none with DMSO even 1 hour post-addition
Source text: (§1) Our final goal was to engineer new properties into condensates and to provide regulation of CC-LLPS assembly or disassembly. […] To introduce chemically regulated assembly, we incorporated FKBP into the first chain and FRB domain into the second chain of the split protein. Upon the addition of rapamycin, those two domains heterodimerize and thus extend the length of the polypeptide.
(§2) Fig. 6 Design of chemical regulation of CC-LLPS. a One polypeptide chain of a condensate-forming pair BFP-(S2)3(S4)3-gs, was separated into two chains, each with 3 CC domains BFP-(S2)3-gs and (S4)3-gs. […] Scale bars, 10 μm.

FKBP/FRB [2] = test: Rapamycin-regulated split TEVp protease dissolution of condensates, HEK293T cells; assay type: cell-based, H.sapiens; conditions: 1 μM rapamycin; HEK293T cells with TEVp site in one condensate-forming chain and rapamycin-regulated split TEVp
Source text: as §2

FKBP/FRB [3] = test: Rapamycin-induced condensate assembly, split two-chain system with FKBP and FRB domains, NIH-3T3 cells; assay type: cell-based, H.sapiens; conditions: 1 μM rapamycin; NIH-3T3 cells expressing Cit(S1-S3)3-SAH, BFP(S2)3-gsFKBP and FRB(S4)3-gs; none with vehicle control
Source text: as §1, §2

complementary peptide = test: Isothermal titration calorimetry (ITC) of orthogonal CC peptide pairs; assay type: binding; conditions: 50 mM Tris pH 7.5, 150 mM NaCl, 1 mM TCEP, uncertainty from Monte Carlo simulation of the fit
Protocol: MicroCal PEAQ-ITC (Malvern) was used to measure the equilibrium dissociation constant (Kd) of orthogonal CC pairs. A 40-µl injection syringe was filled with the peptide solution (1 mM P5f, P13f; 5.6 mM S1h or 5.4 mM S3h) in 50 mM Tris pH of 7.5, 150 mM NaCl, and 1 mM TCEP. The samples were injected into an ITC cell (volume 200 µl) filled with a complementary peptide (100 µM P6f or P14f and 560 µM S2h or 540 µM S4h) in a matching buffer through a 19-step process. The injection volumes were 2 µl and were spaced 120 s apart, except for the first priming injection of 0.4 µl with 150 s spacing. Raw thermograms were integrated with the software NITPIC[83], interaction analysis was done with SEDPHAT[84], and titration curves were visualized with a companion GUSSI software. Monte Carlo simulation for non-linear regression, aligning the model function with experimental values 1000 times was used to obtain uncertainties in the fitted model.
Supplementary Figure 2: Binding analysis between the weak 3-heptad and strong 4-heptad CC forming segment using isothermal titration calorimetry (ITC). a) For peptide pair S1h + S2h peptide concentration in 40 µl injection syringe was 5.6 mM for S1h and concentration of complementary peptide S2h in ITC cell (volume 200 µl) was 560 […]
concentration in 40 µl injection syringe was 5.4 mM S3h and concentration of complementary peptide S4h in ITC cell (volume 200 µl) was 540 µM.
± 0.5 kcal/mol. For peptide pair c) P5f + P6f and d) P13f + P14f, which are 4-heptad CC.
Peptide concentration in 40 µl injection syringe was 1 mM for P5f and P13f and concentration […]
± 0.5 µM and ΔH -13.7 +- 0.6 kcal/mol and d) Kd 2.3 ± 0.2 µM and ΔH -14.7 ± 0.6 kcal/mol.
All the peptides were dissolved in a matching buffer 50 mM Tris pH of 7.5, 150 mM NaCl, […]
(1 picture or pasted object on this page, not shown here)

S4h = target: T1, S4h; test: ITC; MicroCal PEAQ-ITC; syringe peptide (1 mM P5f, P13f; 5.6 mM S1h or 5.4 mM S3h) injected into the cell with the complementary peptide (100 µM P6f or P14f; 560 µM S2h or 540 µM S4h); 50 mM Tris pH 7.5, 150 mM NaCl, 1 mM TCEP; concentrations of the S peptides not stated; conditions: both partners purified
T1 chain: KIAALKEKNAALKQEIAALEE

S2h = target: T2, S2h; test: as above; conditions: both partners purified
T2 chain: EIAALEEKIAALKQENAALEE

P6f = target: T3, P6f; test: as above; conditions: both partners purified
T3 chain: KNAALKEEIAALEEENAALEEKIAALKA

P14f = target: T4, P14f; test: as above; conditions: both partners purified
T4 chain: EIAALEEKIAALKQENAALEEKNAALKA

[4] = 3-heptad Sh pairs, 5.6 mM S1h or 5.4 mM S3h in syringe into 560 µM S2h or 540 µM S4h in cell
[5] = 4-heptad pairs, 1 mM P5f or P13f in syringe into 100 µM P6f or P14f in cell

Molecule: CO[C@H]1C[C@@H]2CC[C@@H](C)[C@@](O)(O2)C(=O)C(=O)N2CCCC[C@H]2C(=O)O[C@H]([C@H](C)C[C@@H]2CC[C@@H](O)[C@H](OC)C2)CC(=O)[C@H](C)/C=C(\C)[C@@H](O)[C@@H](OC)C(=O)[C@H](C)C[C@H](C)/C=C/C=C/C=C/1C [rapamycin, Rapamycin]
condensate formation after addition (in words) (FKBP/FRB [1]): after a few minutes | dissolution of condensates after addition (in words) (FKBP/FRB [2]): dissolution of condensates after a few minutes | time after addition at which condensates started to form (FKBP/FRB [3]): 20 min

Molecule: ENAALEEKIAALKEKNAALKEEIAALEA [P5f-P6f]
Kd (complementary peptide; [5]): 5.9 ± 0.5 µM

Molecule: EIAALEEENAALEQKIAALKE [S3h]
Kd (S4h): 340 ± 70 µM

Molecule: KIAALKEEIAALEQKNAALKE [S1h]
Kd (S2h): 2300 ± 1500 µM

Molecule: ENAALEEKIAALKEKNAALKEEIAALEA [P5f]
Kd (P6f): 5.9 ± 0.5 µM

Molecule: KIAALKEEIAALEQKNAALKEENAALEA [P13f]
Kd (P14f): 2.3 ± 0.2 µM

Second part, the molecule after the results:

Kd (complementary peptide; [4]): 340 ± 70 µM
Molecule: EIAALEEENAALEQKIAALKE [S3h-S4h]

Kd (complementary peptide; [4]): 2300 ± 1500 µM
Molecule: KIAALKEEIAALEQKNAALKE [S1h-S2h]

Kd (complementary peptide; [5]): 2.3 ± 0.2 µM
Molecule: KIAALKEEIAALEQKNAALKEENAALEA [P13f-P14f]
